From publication PMC6260593, “Kaempferol and Kaempferol Rhamnosides with Depigmenting and Anti-Inflammatory Properties” (Molecules, 2011)
Like-named read-outs stand apart in the source and are kept apart here.

Columns and labels:
B16 melanoma cells [1] = experiment: Depigmenting activity (melanin content) in B16 melanoma cells; type: cell-based; settings: for IC50: Mus musculus, 120 h, 5 days, melanin content, read-out: Inhibitory activity [IC50] Depigmentation
Protocol: The cell pellets were then dissolved in 1 N NaOH in 10% DMSO (500 μL) at 80 °C for 1 h. The relative melanin content was determined by measuring the absorbance at 475 nm with an ELISA reader (Molecular Devices Corp., Menlo Park, CA, USA). A standard synthetic melanin curve (0–500 μg⁄mL) was prepared in triplicate for each experiment.

[2] = Cytotoxicity towards B16 melanoma cells; type: cell-based; settings: mouse, read-out: Inhibitory activity [IC50] Cytotoxicity
[3] = system: NO production in LPS-activated RAW264.7 cells; experiment: Inhibition of NO production induced by LPS in RAW264.7 cells (Griess); type: cell-based; settings: Mus musculus, LPS 1 μg/mL, 24 h, read-out: Inhibitory activity [IC50] NO
Protocol: The nitrite in the culture supernatants was measured by adding Griess reagent (100 μL, 1% sulfanilamide and 0.1% N-[1-naphthyl]-ethylenediamine dihydrochloride in 5% phosphoric acid) to samples of the medium (100 μL) for 10 min at room temperature. The OD at 570 nm (OD570) was measured using a Spectramax 250 microplate reader (Molecular Devices). A standard curve of NO was made with sodium nitrite.

in vitro = settings: mouse
Protocol: (§1) The cytotoxic effect of kojyl thioether derivatives was then evaluated by a conventional MTT assay. At 3 h prior to culture termination, MTT solution (10 μL, 5 mg/mL in a phosphate buffered-saline, pH 7.4) was added and the cells were continuously cultured until termination. The incubation was halted by the addition of 15% sodium dodecyl sulfate into each well, solubilizing formazan. The absorbance at 570 nm (OD570–630) was measured by a Spectramax 250 microplate reader.

[4] = system: NF-κB-mediated luciferase activity; experiment: NF-κB-mediated luciferase assay in HEK293 cells; type: cell-based; settings: HEK293 cells transfected with NF-κB-Luc, PMA 0.1 μM, 24 h, read-out: Inhibitory activity [IC50] NF-κB-mediated luciferase activity
Protocol: HEK293 cells (1 × 10^6 cells/mL) were transfected with plasmids containing NF-κB-Luc, (1 μg/mL each) as well as β-galactosidase (0.5 μg/mL) using the PEI method in a 12-well plate for 48 h, and they were treated with testing compounds in the presence or absence of PMA (0.1 μM) for 24 h. Luciferase assay was performed using the Luciferse Assay System (Promega).

Tyrosinase = system: Tyrosinase; set-up: method as in PMID 21050756; settings: previously reported, cited from earlier work; for IC50: means of three experiments, read-out: Inhibitory activity [IC50] Tyrosinase
B16 melanoma cells [5] = experiment: Cytotoxicity towards B16 melanoma cells; type: cell-based
RAW264.7 cells = experiment: Cytotoxicity in RAW264.7 cells (MTT)
Protocol: as §1

iNOS mRNA = experiment: Expression of iNOS mRNA in LPS-activated RAW 264.7 cells (RT-PCR); type: cell-based; settings: 25–100 μM, LPS 1 μg/mL for 6 h
Protocol: RAW 264.7 cells were treated with different concentrations of compound 1 and 2 (25–100 μM) and then stimulated with LPS (1 μg/mL) for 6 h.
The total RNA from the LPS treated-RAW264.7 cells was prepared by adding TRIzol Reagent (Gibco BRL), as per the manufacturer’s instructions. Real-time PCR reactions were conducted using MuLV reverse transcriptase. The primers (Bioneer, Daejeon, Korea) were used as previously reported.

Row | SMILES | IC50 (B16 melanoma cells [1]) [µM] | IC50 [2] [µM] | IC50 [3] [µM] | IC50 at 24 h (in vitro) [µM] | IC50 ([4]; Homo sapiens) [µM] | Tyrosinase inhibitory activity (in words) (Tyrosinase) | IC50 at 24 h (in vitro; RAW264.7 cells) [µM] | Depigmenting inhibitory activity (in words) (B16 melanoma cells [1]) | Cytotoxicity towards B16 melanoma cells (in words) (B16 melanoma cells [5]) | Cytotoxicity in the NO assay cells (in words) (RAW264.7 cells; RAW264.7 cells) | Expression of iNOS mRNA (in words) (iNOS mRNA) | IC50 (Tyrosinase) [µM] | IC50 [4] [µM] | Cytotoxicity in the NO assay cells (in words) (RAW264.7 cells)
1 | C[C@@H]1O[C@@H](Oc2c(-c3ccc(O)cc3)oc3cc(O)cc(O)c3c2=O)[C@H](O)[C@H](O)[C@H]1O [Afzelin (3), kaempferol 3-O-α-L-rhamnopyranoside] | > 100 | > 100 | > 100 | > 100 | > 100 | showed no inhibitory activities | – | – | – | – | – | – | – | –
2 | CC(=O)CCCCn1c(=O)c2c(ncn2C)n(C)c1=O [Pentoxifylline, pentoxifylline, reference compound] | – | – | 446 ± 1.1 | – | – | – | > 1000 | – | – | – | – | – | – | –
3 | O=c1c(O)c(-c2ccc(O)cc2)oc2cc(O)cc(O)c12 [Kaempferol (1), kaempferol] | 37.66 ± 0.1 | 25.6 ± 0.9 | 15.4 ± 0.2 | – | 90.3 ± 5.1 | showed tyrosinase inhibitory activities | > 100 | showed inhibitory activity | showed cytotoxicity towards B16 melanoma cells | without cytotoxicity | suppressed the expression of iNOS mRNA in a dose-dependent manner | 171.4 ± 0.9 | – | –
4 | Cc1ccc(S(=O)(=O)/C=C/C#N)cc1 [BAY11-7082, reference compound] | – | – | – | – | – | – | – | – | – | – | – | – | 11.5 ± 0.1 | –
5 | C[C@@H]1O[C@@H](Oc2cc(O)c3c(=O)c(O[C@@H]4O[C@@H](C)[C@H](O)[C@@H](O)[C@H]4O)c(-c4ccc(O)cc4)oc3c2)[C@H](O)[C@H](O)[C@H]1O [Kaempferitrin (4), kaempferol-3,7-O-α-dirhamnoside] | > 100 | > 100 | > 100 | > 100 | > 100 | showed no inhibitory activities | – | – | – | – | – | – | – | –
6 | C[C@@H]1O[C@@H](Oc2cc(O)c3c(=O)c(O)c(-c4ccc(O)cc4)oc3c2)[C@H](O)[C@H](O)[C@H]1O [α-Rhamnoisorobin (2), kaempferol 7-O-α-L-rhamnopyranoside] | 39.5 ± 0.4 | 22.9 ± 1.3 | 37.7 ± 2 | > 100 | 36.2 ± 3.3 | showed tyrosinase inhibitory activities | – | showed inhibitory activity | showed cytotoxicity towards B16 melanoma cells | – | suppressed the expression of iNOS mRNA in a dose-dependent manner | > 400 | – | without cytotoxicity
7 | OC[C@H]1O[C@@H](Oc2ccc(O)cc2)[C@H](O)[C@@H](O)[C@@H]1O [Arbutin, reference compound] | 171 ± 2.1 | > 200 | – | – | – | – | – | – | – | – | – | – | – | –
